In BigSolDB 2.1:

Clc1ccc2c(c1)Nc1ccccc1S2
solubility (mole fraction)
Settings	in 2-butanone	in acetone	in acetonitrile	in ethanol	in ethyl acetate	in isopropanol	in methanol	in n-butanol	in n-propanol
283.15 K	0.0337	0.0268	0.00354	0.00431	0.0156	0.0038	0.00465	0.00328	0.0041
285.65 K	0.0356	0.0281	0.00378	0.00446	0.0173	0.00397	0.00483	0.00344	0.00426
288.15 K	0.0378	0.03	0.00406	0.00465	0.0194	0.00415	0.00502	0.00361	0.00446
290.65 K	0.0402	0.0317	0.00435	0.00486	0.0216	0.00433	0.00525	0.00381	0.00466
293.15 K	0.0427	0.0336	0.00467	0.00505	0.024	0.00454	0.00545	0.00401	0.00487
295.65 K	0.0455	0.0356	0.00498	0.00525	0.0265	0.00473	0.0057	0.00422	0.00509
298.15 K	0.0484	0.0378	0.00532	0.00546	0.0291	0.00493	0.00594	0.00445	0.0053
300.65 K	0.0513	0.0399	0.00564	0.00569	0.0323	0.00513	0.0062	0.00468	0.00552
303.15 K	0.0546	0.0421	0.006	0.00592	0.0357	0.00536	0.00647	0.00492	0.00575
305.65 K	0.0578	0.0443	0.00633	0.00617	0.0397	0.00556	0.00673	0.00518	0.006
308.15 K	0.0612	0.0469	0.00672	0.00641	0.0435	0.0058	0.00701	0.00543	0.00622
310.65 K	0.0646	0.0493	0.0071	0.00667	0.0484	0.00605	0.00728	0.0057	0.00649
313.15 K	0.0683	0.0518	0.00756	0.00695	0.0528	0.0063	0.00758	0.00596	0.00678
315.65 K	0.0727	0.0544	0.00795	0.00723	0.0575	0.00657	0.00786	0.00624	0.00705
318.15 K	0.0771	0.0575	0.00837	0.00756	0.0625	0.00687	0.00819	0.00653	0.00737
